Laboratory results as given in publication PMC8897968 (European Journal of Medicinal Chemistry, 2022).

Legend:
rabies virus G protein = rabies virus G protein (Rabies virus, UniProt O92284); test: biochemical; format: binding
rabies virus CVS strain = test: microbe, parasite or virus in culture; format: cell-based; settings: for IC50: Lyssavirus rabies, read-out: IC50 values (anti-rabies, as worded in the text)
Kunming mice = test: Acute toxicity test in Kunming mice; settings: oral, single dose, monitored for 7 days
pSARS-CoV-2 = format: cell-based, SARS-CoV-2
BSR cells = test: Cytotoxicity in BSR cells; settings: Cytotoxic concentration required to inhibit BSR cell growth by 50%
Huh 7 cells = test: Cytotoxicity in Huh 7 cells; settings: Cytotoxic concentration required to inhibit Huh 7 cell growth by 50%
[1] = Cytotoxicity in Huh 7 cells; settings: human, Huh 7 cells

rabies virus G protein, sequence (O92284 20-459 limits assumed): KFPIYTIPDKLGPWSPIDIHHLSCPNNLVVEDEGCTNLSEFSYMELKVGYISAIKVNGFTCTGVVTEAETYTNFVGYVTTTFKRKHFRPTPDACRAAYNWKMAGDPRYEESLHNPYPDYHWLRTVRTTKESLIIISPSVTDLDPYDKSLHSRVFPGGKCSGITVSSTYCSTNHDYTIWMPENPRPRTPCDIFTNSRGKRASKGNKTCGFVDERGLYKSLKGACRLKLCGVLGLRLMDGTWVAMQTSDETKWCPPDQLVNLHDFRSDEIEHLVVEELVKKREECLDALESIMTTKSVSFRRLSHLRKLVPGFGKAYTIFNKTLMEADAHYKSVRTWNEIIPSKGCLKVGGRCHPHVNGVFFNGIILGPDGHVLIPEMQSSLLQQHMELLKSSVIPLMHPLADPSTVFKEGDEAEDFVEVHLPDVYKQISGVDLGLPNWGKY

## CC(C)/N=c1\cc2n(-c3ccc(Cl)cc3)c3ccccc3nc-2cc1Nc1ccc(Cl)cc1 [Compound 1, clofazimine, reference compound]
Rabies virus G protein
  Kd: 730 nM

## COc1ccc(-n2c3c/c(=N\C(C)C)c(Nc4cccc(F)c4)cc-3nc3ccccc32)cn1 [Compound 15f, 2-m-Fluoroanilino-3-isopropylimino-5-(6-methoxy-3-pyridinyl)-3,5-dihydro phenazine]
Rabies virus CVS strain
  IC50: 1450 nM
Rabies virus G protein
  Kd: 280 nM
Kunming mice
  median lethal dose (LD50): over 800 mg•kg^−1

## CC(C)/N=c1\cc2n(-c3ccc(Cl)cc3)c3ccccc3nc-2cc1NCc1ccc(Cl)cc1 [Compound 7k, 2-p-Chlorobenzylamino-3-isopropylimino-5-p-chlorophenyl-3,5-dihydrophena zine]
Rabies virus CVS strain
  IC50: 760 nM

## CC(C)/N=c1\cc2n(-c3ccccc3)c3ccccc3nc-2cc1Nc1ccc(Cl)cc1 [Compound 7l]
Rabies virus CVS strain
  IC50: 1400 nM

## 2-p-fluoroanilino-3-isopropylimino-5-p-chlorophenyl-3,5-dihydrophenazine [Compound 15a]
Rabies virus CVS strain
  EC50: 4.02 µM
pSARS-CoV-2
  EC50: 29.6 µM
BSR cells
  CC50: > 200 µM
Huh 7 cells
  CC50: 17 µM

## COc1ccc(-n2c3c/c(=N\C(C)C)c(Nc4ccc(F)cc4)cc-3nc3ccccc32)cn1 [Compound 15g, 2-p-Fluoroanilino-3-isopropylimino-5-(6-methoxy-3-pyridinyl)-3,5-dihydro phenazine]
Rabies virus CVS strain
  IC50: 1410 nM
Kunming mice
  median lethal dose (LD50): over 800 mg•kg^−1

## CC(C)/N=c1\cc2n(-c3ccccc3)c3ccccc3nc-2cc1NCc1ccc(F)cc1 [Compound 7q, 2-p-Fluorobenzylamino-3-isopropylimino-5-phenyl-3,5-dihydrophenazine]
Rabies virus CVS strain
  IC50: 1900 nM

## 2-Benzyl-3-imino-5-phenyl-3,5-dihydrophenazine [Compound 6l]
Rabies virus CVS strain
  EC50: 35.4 µM
BSR cells
  CC50: 35.4 µM

## CC(C)/N=c1\cc2n(-c3ccc(Cl)cc3)c3ccccc3nc-2cc1Nc1ccc(OC(F)(F)F)cc1 [Compound 7i, 2-p-Trifluoromethoxyanilino-3-isopropylimino-5-p-chlorophenyl-3,5-dihydro phenazine]
Rabies virus CVS strain
  IC50: 1770 nM

## CC(C)/N=c1\cc2n(-c3ccccc3)c3ccccc3nc-2cc1NCc1ccccc1 [Compound 7p, 2-Benzylamino-3-isopropylimino-5-phenyl-3,5-dihydrophenazine]
Rabies virus CVS strain
  IC50: 1400 nM

## CC(C)/N=c1\cc2n(-c3ccc(F)cc3)c3ccccc3nc-2cc1Nc1ccc(F)cc1 [Compound 15b]
[1]
  CC50 at 24 h: > 200 µM
